# Measured values reported in patent publication US20050234115A1, “Dosage forms and methods of treatment using VEGFR inhibitors” (Pfizer Inc., priority 2004, published 2005).
# Read-outs that look alike come from different tables or passages of the source.
# How the values were obtained:
# endothelial cell = endothelial cell proliferation; assay type: cell-based
# Excerpt: (§1) The compound of formula 1 is an anti-angiogenic small molecule inhibitor of the tyrosine kinase activity of the vascular endothelial growth factor receptor 2 (VEGFR-2). […] Angiogenesis is necessary for the growth and metastasis of all solid tumors, in that newly formed blood vessels provide nutrients for growing tumors. VEGF is highly overexpressed in a number of tumors. The therapeutic objective of the compound of formula 1 is to inhibit angiogenesis and thereby prevent tumor growth by inhibition of VEGFR-2 tyrosine kinase (TK) activity.
# VEGFR-2 = VEGFR-2 (Homo sapiens, UniProt P35968); assay: VEGF stimulated VEGFR-2 autophosphorylation in whole cells; assay type: cell-based
# Excerpt: as §1
# stage IIIb or IV NSCLC = assay: phase 1/2 study with paclitaxel and carboplatin: anti-tumor activity; assay type: in vivo, human patients; conditions: 24 patients evaluable for response, with P/C
# Protocol: (§2) Anti-tumor activity was also assessed.
# [1] = phase 1/2 study with paclitaxel and carboplatin: safety; assay type: in vivo, human patients
# Protocol: as §2
# [2] = hygroscopicity of the salt; assay type: physicochemical; conditions: at 90% relative humidity at ambient temperature
# Protocol: The mixture was then shaken gently with heating at 50° C. for 3 hours and at ambient temperature for 3 days. The solid was filtered, dried under high vacuum to afford a white solid (468 mg, 0.823 mmol, 82%). Melting point 230° C. (DSC). Hygroscopicity: 1% (by weight)) at 90% relative humidity at ambient temperature (RH). Characteristic X-ray powder diffraction peaks (2-theta, [% relative intensity]): 8.623 [90.7], 12.121 [38.9], 17.298 [95.2], 23.397 [44.7], 23.944 [51.7], 24.119 [62.7], 24.873 [55.7], 25.948 [100], and 28.821 [39.6].
# [3] = phase 1/2 study with paclitaxel and carboplatin: PK; conditions: doses ≧150 mg QD
# Excerpt: (§4) With daily (i.e., QD) dosing, the 24-hour AUC value (i.e., the dosing interval AUC value) is a standard measure of systemic exposure to the compound.
# (§5) A phase 1/2 study examined the safety and PK of escalating oral QD doses of the hydrochloride salt of the compound of formula 1, viz., the hydrochloride salt of 3-(4-Bromo-2,6-difluoro-benzyloxy)-5-[3-(4-pyrrolidin-1-yl-butyl)-ureido]-isothiazole-4-carboxylic acid amide (i.e., compound of formula 2 shown above), given in combination with paclitaxel (P) (225 mg m^2) and carboplatin (C) (AUC=6) administered in 21 day cycles to chemotherapy naïve patients with PS 0-1 stage IIIb or IV NSCLC with or without stable brain mets and PS 0-1.
# [4] = phase 1 single agent study: pharmacokinetic analysis; assay type: in vivo, human patients; conditions: for AUC: 250 mg
# Protocol: A preliminary pharmacokinetic analysis has been performed on the compound of formula 2 concentration data from the patients in the Phase 1 study. In the higher dose cohorts in that study, blood specimens for pharmacokinetics were collected on Day 1 and 15 of Cycle 1 at the following times: just prior to dosing and at 0.5, 1, 2, 4, 6, 8, 12, 16, and 24 hours post-dose. Blood specimens for pharmacokinetics were also collected prior to and 2 hours after dosing on Days 3, 5, and 8 of Cycle 1. […] The 1% value of the cumulative distribution of the data is 2000 ng·hr/mL and the 99% value is 25000 ng·hr/mL. […] For instance, the 99% value for a dose of 300 mg is predicted to be 25000 ng·hr/mL times 1.2 (300 divided by 250) which equals 30000 ng·hr/mL. The 1% value for a dose of 125 mg is predicted to be 2000 ng·hr/mL times 0.5 (125 divided by 250) which equals 1000 ng·hr/mL. Similar calculations provide predictions of the 1% (lower) and 99% (upper) values of the cumulative distribution of 24-hour AUC values for doses of 150 mg, 180 mg, 260 mg, and 280 mg.
# [5] = test system: patient malignancies (NSCL, renal and urothelial, breast, colorectal, other); assay: phase 1 single agent study: tumor response; assay type: in vivo, human patients; conditions: of 29 patients with tumor response data
# Protocol: (§3) In a phase 1 study, fifty five (55) patients were treated with the compound of formula 2 as a single agent over a dose range from 35 mg PO (oral dose) for 14 days to 400 mg PO per day continuously. Overall, 25 male and 30 female patients were treated. Patient malignancies include: NSCL (11 patients), renal and urothelial (7 patients), breast (6 patients), colorectal (7 patients), esophageal (3 patients), pancreatic (2 patients), prostate (3 patients), melanoma (2 patients), head and neck (3 patients), soft tissue sarcoma (3 patients), other (8 patients). Forty-two patients had prior chemotherapy. Three patients starting at 300 mg/d had dose reductions to 225 mg/d; 2 reductions were for grade 3 hypertension (HTN), graded by the Common Toxicity Criteria (CTC version 2), occurring between days 15 and 18; 1 additional reduction was as per the patient's request after an episode of hemoptysis in this patient with renal cell carcinoma and lung metastasis. CTC Grade 3 hypertension was initially considered dose limiting at doses of the compound of formula 2 of 300 mg/d, occurring in 2 of 6 patients. Both patients returned to CTC grade 1 or better within 7 days of holding study drug.
# Of the 29 patients for whom tumor response data is available, 9 patients have stable disease beyond 2 cycles (more than 8 weeks) and 2 patients had stable disease beyond 4 cycles (more than 16 weeks).
# [6] = design: species or system human patients; conditions: in vivo
# Protocol: as §3
# clinical = conditions: human, plasma, oral
# Excerpt: as §4, §5
# Sequence of VEGFR-2 (P35968 20-1356): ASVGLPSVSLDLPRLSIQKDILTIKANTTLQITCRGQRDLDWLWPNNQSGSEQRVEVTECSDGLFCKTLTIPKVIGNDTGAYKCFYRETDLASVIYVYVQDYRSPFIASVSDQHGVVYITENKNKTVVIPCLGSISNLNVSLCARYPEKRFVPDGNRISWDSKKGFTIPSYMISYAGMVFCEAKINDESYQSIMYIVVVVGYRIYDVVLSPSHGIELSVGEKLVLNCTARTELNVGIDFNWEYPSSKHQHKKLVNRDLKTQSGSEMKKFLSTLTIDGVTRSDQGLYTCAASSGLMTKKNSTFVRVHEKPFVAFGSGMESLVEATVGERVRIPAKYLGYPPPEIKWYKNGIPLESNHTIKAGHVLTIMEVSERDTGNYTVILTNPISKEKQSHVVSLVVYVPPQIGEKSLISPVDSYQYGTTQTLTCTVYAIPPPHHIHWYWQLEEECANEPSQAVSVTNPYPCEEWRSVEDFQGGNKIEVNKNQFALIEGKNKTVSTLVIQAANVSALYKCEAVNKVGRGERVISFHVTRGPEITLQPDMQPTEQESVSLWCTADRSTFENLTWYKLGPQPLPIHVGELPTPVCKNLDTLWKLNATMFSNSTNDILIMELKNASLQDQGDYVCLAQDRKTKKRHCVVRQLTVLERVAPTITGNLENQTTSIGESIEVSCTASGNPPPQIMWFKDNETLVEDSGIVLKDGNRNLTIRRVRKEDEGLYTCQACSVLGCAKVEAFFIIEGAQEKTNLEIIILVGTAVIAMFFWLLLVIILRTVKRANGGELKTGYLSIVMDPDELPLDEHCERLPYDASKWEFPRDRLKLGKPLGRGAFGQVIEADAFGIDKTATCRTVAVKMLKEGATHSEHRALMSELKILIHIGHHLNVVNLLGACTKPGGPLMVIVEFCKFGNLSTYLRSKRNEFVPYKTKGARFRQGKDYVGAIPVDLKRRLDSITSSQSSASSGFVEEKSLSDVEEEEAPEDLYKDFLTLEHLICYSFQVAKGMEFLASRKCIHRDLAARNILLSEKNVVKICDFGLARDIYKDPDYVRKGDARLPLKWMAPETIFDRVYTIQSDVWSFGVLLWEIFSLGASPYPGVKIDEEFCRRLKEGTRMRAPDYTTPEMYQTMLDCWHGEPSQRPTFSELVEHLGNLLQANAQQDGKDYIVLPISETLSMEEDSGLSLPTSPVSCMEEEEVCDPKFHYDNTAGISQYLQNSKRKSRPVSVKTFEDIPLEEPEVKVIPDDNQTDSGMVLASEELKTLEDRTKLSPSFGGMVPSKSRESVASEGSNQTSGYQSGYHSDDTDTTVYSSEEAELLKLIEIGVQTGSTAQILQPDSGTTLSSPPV
structure (smiles),measurement,setting,value
NC(=O)c1c(OCc2c(F)cc(Br)cc2F)nsc1NC(=O)NCCCCN1CCCC1 [compound of formula 1],inhibition of endothelial cell proliferation,endothelial cell,inhibits endothelial cell proliferation
same,inhibition of VEGF stimulated VEGFR-2 autophosphorylation,VEGFR-2,inhibits VEGF stimulated VEGFR-2 autophosphorylation in whole cells
Cl.NC(=O)c1c(OCc2c(F)cc(Br)cc2F)nsc1NC(=O)NCCCCN1CCCC1 [compound of formula 2],objective response rate,stage IIIb or IV NSCLC,20%
same,progressive disease rate,stage IIIb or IV NSCLC,33%
same,most common treatment emergent adverse events,[1]; in vivo,"diarrhea, fatigue, nausea, neuropathy, emesis, alopecia, dyspnea and arthralgia/myalgia"
same,safety of combination with standard doses of P/C,"[1]; in vivo, po",can be safely combined with standard doses of P/C
same,maximum tolerable dose,"[1]; oral QD with paclitaxel 225 mg/m2 and carboplatin AUC=6, 21 day cycles, NSCLC patients",200 mg/day
same,Hygroscopicity,[2],1 % (by weight)
same,plasma concentrations achieved,[3],within the range associated with anti-angiogenesis in preclinical models
same,drug concentrations versus predicted efficacious concentrations,[4]; 250 mg daily dose,consistently above the lowest predicted human efficacious concentrations
same,"24-hour AUC, predicted 1% value of the cumulative distribution","[4]; dose of 125 mg, assuming dose proportionality",1000 ng·h/mL
same,"24-hour AUC, predicted 99% value of the cumulative distribution","[4]; dose of 300 mg, assuming dose proportionality",30000 ng·h/mL
same,AUC,"[4]; human, plasma, oral, 250 mg QD, 19 patients, log-normal distribution, read-out: 24-hour AUC, geometric mean",7260 ng·h/mL
same,AUC,"[4]; human, plasma, oral, 250 mg QD, 19 patients, read-out: 24-hour AUC values, range",2880 to 18700 ng·h/mL
same,AUC,"[4]; human, plasma, oral, 250 mg QD, 19 patients, read-out: 24-hour AUC, 1% value of the cumulative distribution",2000 ng·h/mL
same,AUC,"[4]; human, plasma, oral, 250 mg QD, 19 patients, read-out: 24-hour AUC, 99% value of the cumulative distribution",25000 ng·h/mL
same,Cmax,"[4]; human, plasma, oral, 250 mg QD, 19 patients, standard deviation 240 ng/mL, read-out: mean Cmax (maximum observed plasma concentration)",457 ng/mL
same,patients with stable disease beyond 2 cycles (more than 8 weeks),[5],9 patients
same,patients with stable disease beyond 4 cycles (more than 16 weeks),[5],2 patients
same,CTC Grade 3 hypertension (initially considered dose limiting),"[6]; both, human",2 of 6
same,dermatologic events reported by more than one patient,"[6]; both, human","grade 2 venostasis rash, which occurred in cycle 2, and grade 1 pallor and shingles"
same,events in patient dose reduced from 400 mg to 350 mg,"[6]; both, human",grade 3 fatigue
same,patients with dose limiting toxicities,"[6]; both, human",None of the 4
same,patients with dose limiting toxicity,"[6]; both, human",1 of 10
same,recommended Phase 2 single agent dose,"[6]; both, human",250 mg
same,reports of grade 3 diarrhea,"[6]; both, human",3 reports
same,maximum administered dose,"[6]; both, human, po",400 mg
same,events in patient further dose reduced to 300 mg,[6],"severe renal hemorrhage, alveolar hemorrhage and gastrointestinal hemorrhage"
same,other gastrointestinal adverse events occurring in 2 or more patients,[6],"nausea, taste disturbance, anorexia and mouth dryness"
same,half-life,clinical,~1920 min
